Experimental data from ChEMBL document CHEMBL1201862, “PubChem BioAssay data set” (2004).
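Five concentrations, 48 hours, 96-well plates. The concentration for 50% growth inhibition is given as GI50.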 Activity calls are given as the source filed them. Rule as the data show it: active = GI50 up to about 1.1 µM and inactive = higher.

Assays:
Test in all cases: growth of human tumour cells (NCI), 48 h
786-0 = system: 786-0
A498 = system: A498
A549 = system: A549
ACHN = system: ACHN
BT-549 = system: BT-549
CAKI-1 = system: CAKI-1
CCRF-CEM = system: CCRF-CEM
COLO 205 = system: COLO 205
DU-145 = system: DU-145
EKVX = system: EKVX
HCC 2998 = system: HCC 2998
HCT-116 = system: HCT-116
HCT-15 = system: HCT-15
HL-60 = system: HL-60
HOP-62 = system: HOP-62
HOP-92 = system: HOP-92
HT-29 = system: HT-29
Hs-578T = system: Hs-578T
IGROV-1 = system: IGROV-1
K562 = system: K562
KM12 = system: KM12
LOX IMVI = system: LOX IMVI
M14 = system: M14
MCF7 = system: MCF7
MDA-MB-231 = system: MDA-MB-231
MDA-MB-435 = system: MDA-MB-435
MDA-N = system: MDA-N
MOLT-4 = system: MOLT-4
Malme-3M = system: Malme-3M
NCI-H226 = system: NCI-H226
NCI-H23 = system: NCI-H23
NCI-H460 = system: NCI-H460
NCI-H522 = system: NCI-H522
NCI/ADR-RES = system: NCI/ADR-RES
OVCAR-3 = system: OVCAR-3
OVCAR-4 = system: OVCAR-4
OVCAR-5 = system: OVCAR-5
OVCAR-8 = system: OVCAR-8
PC-3 = system: PC-3
RXF 393 = system: RXF 393
SF-268 = system: SF-268
SF-295 = system: SF-295
SF-539 = system: SF-539
SK-MEL-28 = system: SK-MEL-28
SK-MEL-2 = system: SK-MEL-2
SK-MEL-5 = system: SK-MEL-5
SK-OV-3 = system: SK-OV-3
SN12C = system: SN12C
SNB-19 = system: SNB-19
SR = system: SR
SW-620 = system: SW-620
T47D = system: T47D
TK-10 = system: TK-10
U-251 = system: U-251
UACC-257 = system: UACC-257
UACC-62 = system: UACC-62
UO-31 = system: UO-31
SNB-75 = system: SNB-75

C1=Cc2cccc3occ(c23)C=C1
GI50 (786-0): 58.3 µM (inactive) | GI50 (A498): > 100 µM (inactive) | GI50 (A549): > 100 µM (inactive) | GI50 (ACHN): 58.1 µM (inactive) | GI50 (BT-549): 39.9 µM (inactive) | GI50 (CAKI-1): > 100 µM (inactive) | GI50 (CCRF-CEM): 20.5 µM (inactive) | GI50 (COLO 205): 29 µM (inactive) | GI50 (DU-145): > 100 µM (inactive) | GI50 (EKVX): 49.3 µM (inactive) | GI50 (HCC 2998): 29 µM (inactive) | GI50 (HCT-116): 46.3 µM (inactive) | GI50 (HCT-15): 48 µM | GI50 (HL-60): 20.4 µM (inactive) | GI50 (HOP-62): > 100 µM (inactive) | GI50 (HOP-92): 91.8 µM (inactive) | GI50 (HT-29): 35.1 µM (inactive) | GI50 (Hs-578T): 22.1 µM (inactive) | GI50 (IGROV-1): 54.2 µM (inactive) | GI50 (K562): 16.3 µM (inactive) | GI50 (KM12): 43 µM (inactive) | GI50 (LOX IMVI): 17.9 µM (inactive) | GI50 (M14): > 100 µM (inactive) | GI50 (MCF7): 31.8 µM (inactive) | GI50 (MDA-MB-231): > 100 µM (inactive) | GI50 (MDA-MB-435): 82 µM (inactive) | GI50 (MDA-N): > 100 µM (inactive) | GI50 (MOLT-4): 25.6 µM (inactive) | GI50 (Malme-3M): > 100 µM (inactive) | GI50 (NCI-H226): 24.1 µM (inactive) | GI50 (NCI-H23): 84.5 µM (inactive) | GI50 (NCI-H460): 41.3 µM (inactive) | GI50 (NCI-H522): 33 µM (inactive) | GI50 (NCI/ADR-RES): > 100 µM (inactive) | GI50 (OVCAR-3): 31.2 µM (inactive) | GI50 (OVCAR-4): 56.9 µM (inactive) | GI50 (OVCAR-5): > 100 µM (inactive) | GI50 (OVCAR-8): 46.8 µM (inactive) | GI50 (PC-3): 66.4 µM (inactive) | GI50 (RXF 393): 25.8 µM (inactive) | GI50 (SF-268): > 100 µM (inactive) | GI50 (SF-295): > 100 µM (inactive) | GI50 (SF-539): 37.4 µM (inactive) | GI50 (SK-MEL-28): 47.2 µM (inactive) | GI50 (SK-MEL-2): > 100 µM (inactive) | GI50 (SK-MEL-5): > 100 µM (inactive) | GI50 (SK-OV-3): > 100 µM (inactive) | GI50 (SN12C): > 100 µM (inactive) | GI50 (SNB-19): 95.1 µM (inactive) | GI50 (SR): 15.8 µM (inactive) | GI50 (SW-620): 39.1 µM (inactive) | GI50 (T47D): 68.7 µM (inactive) | GI50 (TK-10): 36 µM (inactive) | GI50 (U-251): 36.3 µM (inactive) | GI50 (UACC-257): > 100 µM (inactive) | GI50 (UACC-62): 39.3 µM (inactive) | GI50 (UO-31): 41.8 µM (inactive)

CCCCCCCCCC(=O)OCC1(CO)C/C(=C/CC(C(C)C)C(C)C)C(=O)O1 (stereo not drawn)
GI50 (786-0): 35.7 µM (inactive) | GI50 (A498): 53.3 µM (inactive) | GI50 (A549): 26.6 µM (inactive) | GI50 (ACHN): 71.1 µM (inactive) | GI50 (BT-549): > 100 µM (inactive) | GI50 (CAKI-1): 16 µM (inactive) | GI50 (CCRF-CEM): 14.9 µM (inactive) | GI50 (COLO 205): 9.18 µM (inactive) | GI50 (DU-145): 71 µM (inactive) | GI50 (EKVX): 70.1 µM (inactive) | GI50 (HCC 2998): 39.3 µM (inactive) | GI50 (HCT-116): 33.5 µM (inactive) | GI50 (HCT-15): 84.5 µM | GI50 (HOP-62): 30 µM (inactive) | GI50 (HOP-92): > 100 µM (inactive) | GI50 (HT-29): 31.6 µM (inactive) | GI50 (Hs-578T): 27 µM (inactive) | GI50 (IGROV-1): 37.7 µM (inactive) | GI50 (K562): 18.3 µM (inactive) | GI50 (KM12): 10.2 µM (inactive) | GI50 (LOX IMVI): 21.6 µM (inactive) | GI50 (M14): 51.2 µM (inactive) | GI50 (MCF7): 59 µM (inactive) | GI50 (MDA-MB-231): 51.3 µM (inactive) | GI50 (MDA-MB-435): 31.6 µM (inactive) | GI50 (MDA-N): 87.1 µM (inactive) | GI50 (MOLT-4): 14.5 µM (inactive) | GI50 (Malme-3M): 23 µM (inactive) | GI50 (NCI-H226): 74.5 µM (inactive) | GI50 (NCI-H23): > 100 µM (inactive) | GI50 (NCI-H460): 23.5 µM (inactive) | GI50 (NCI-H522): 19.4 µM (inactive) | GI50 (NCI/ADR-RES): > 100 µM (inactive) | GI50 (OVCAR-3): > 100 µM (inactive) | GI50 (OVCAR-4): 61.2 µM (inactive) | GI50 (OVCAR-5): 64.9 µM (inactive) | GI50 (OVCAR-8): 47.1 µM (inactive) | GI50 (PC-3): 42.4 µM (inactive) | GI50 (RXF 393): > 100 µM (inactive) | GI50 (SF-268): > 100 µM (inactive) | GI50 (SF-295): 42.4 µM (inactive) | GI50 (SK-MEL-28): 71.3 µM (inactive) | GI50 (SK-MEL-2): > 100 µM (inactive) | GI50 (SK-MEL-5): 25.7 µM (inactive) | GI50 (SK-OV-3): > 100 µM (inactive) | GI50 (SN12C): 51.9 µM (inactive) | GI50 (SNB-19): 32.6 µM (inactive) | GI50 (SNB-75): 78 µM (inactive) | GI50 (SR): 26.2 µM (inactive) | GI50 (SW-620): 26.9 µM (inactive) | GI50 (T47D): 58.3 µM (inactive) | GI50 (TK-10): 77.6 µM (inactive) | GI50 (U-251): 26.7 µM (inactive) | GI50 (UACC-257): > 100 µM (inactive) | GI50 (UACC-62): 49.2 µM (inactive) | GI50 (UO-31): 28.7 µM (inactive)
